Assay results published in patent US3954793A, “1-(2-Propynyl)-1 H-indazole compounds” (priority 1973, dated 1976).

Experiments:
[1] = tested on: IN/WHO strain house flies; assay: topical application, percent kill after 24 hours, susceptible IN/WHO strain; type: in vivo, female); conditions: for percent kill after 24 hours, synergist alone (GS 13005 part of Table XXXI): GS 13005 0, synergist 1 μg/fly; for percent kill after 24 hours, synergist alone: insecticide 0, synergist 1 μg/fly; for percent kill after 24 hours, with Diazinon: Diazinon 0.03 + synergist 0.15 μg/fly
Summary of the method: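 Insecticide plus synergist in acetone, 1.0 μl applied to the thorax of CO2-anesthetized 3-to-5-day-old female IN/WHO house flies, doses in μg/fly. Flies held 10 per dish, 3-5 dishes per treatment, with skim milk. Percent mortality scored after 24 h.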

[2] = tested on: Swiss albino, white male mice; assay: acute toxicity and synergism of acute toxicity in mice; type: in vivo; conditions: for number of mice dead, with Dimetilan: 48 hours; for number of mice dead, with Dimetilan / number of mice dead, synergist alone: eight mice; for number of mice dead, with GS 13005: GS 13005 71 + synergist 213 mg/kg; for number of mice dead, with Methadone: Methadone 32 + synergist 215 mg/kg; for number of mice dead, with Secobarbital: Secobarbital 90 + synergist 215 mg/kg; for number of mice dead, synergist alone: synergist 1000 mg/kg i.p., Dimetilan 0, 72 hours
Summary of the method: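 Male Swiss albino mice (23 to 27 g, five to six weeks), eight per dose, dosed intraperitoneally in corn oil: dimetilan alone at 4 to 32 mg per kg, synergists alone at 1000 mg/kg with deaths counted at 72 hours. For synergism, synergist given 1 hour before insecticide, lethality observed for at least 6 hours.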

male mice = assay: extension of sleeping time of depressant drugs by synergists; type: in vivo, male mice (Swiss albino white); conditions: for Mean Sleeping Time, Noludar / Relative Sleeping Time, Noludar: Noludar 110 mg/kg; for Relative Sleeping Time, Noludar / Relative Sleeping Time, Secobarbital: treated/control; for Mean Sleeping Time, Secobarbital / Relative Sleeping Time, Secobarbital: Secobarbital 37 mg/kg
Summary of the method: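 Swiss albino male mice (~38 days, 25-30 g) given synergist at 74.0 or 110.0 mg/kg in corn oil 1 h before Secobarbital 37.0 mg/kg or Noludar 110.0 mg/kg in water. Sleeping time measured from drug dosing to righting-reflex recovery; relative sleeping time = treated ÷ drug-only control.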

[3] = GS 13005 0.10 + synergist 0.50 μg/fly
[4] = Mobam 0.20 + synergist 1 μg/fly
[5] = Dimetilan 8 + synergist 80 mg/kg i.p.
[6] = Dimetilan 8 + synergist 240 mg/kg i.p.
[7] = synergist 110 mg/kg one hour prior
[8] = synergist 74 mg/kg one hour prior
[9] = GS 13005 0.05 + synergist 0.25 μg/fly
[10] = GS 13005 0.10 + synergist 0.125 μg/fly
[11] = GS 13005 0.10 + synergist 0.25 μg/fly

SMILES	percent kill after 24 hours, synergist alone (GS 13005 part of Table XXXI) [1]	percent kill after 24 hours, with GS 13005 [1, 3]	percent kill after 24 hours, with Mobam [1, 4]	percent kill after 24 hours, synergist alone [1]	number of mice dead, with Dimetilan [2, 5]	number of mice dead, with Dimetilan [2, 6]	number of mice dead, with GS 13005 [2]	number of mice dead, with Methadone [2]	number of mice dead, with Secobarbital [2]	number of mice dead, synergist alone [2]	Mean Sleeping Time, Noludar (male mice; [7])	Relative Sleeping Time, Noludar (male mice; synergist 110 mg/kg)	Mean Sleeping Time, Secobarbital (male mice; [8])	Relative Sleeping Time, Secobarbital (male mice; synergist 74 mg/kg)	Mean Sleeping Time, Secobarbital (male mice; [7])	Relative Sleeping Time, Secobarbital (male mice; synergist 110 mg/kg)	percent kill after 24 hours, with Diazinon [1]	percent kill after 24 hours, with GS 13005 [1, 9]	percent kill after 24 hours, with GS 13005 [1, 10]	percent kill after 24 hours, with GS 13005 [1, 11]	also measured
C#CCOCc1c(Cl)cccc1[N+](=O)[O-] [II-K]	10%	100%	100%	10%	0	6	3	2	1	1	75 min	2.4	48 min	1.5	44 min	2					24 hour percent mortality, Baygon with five parts II-K ([1]; Baygon 0.125 μg/fly, five parts synergist): 83%; 24 hour percent mortality, Bidrin with five parts II-K ([1]; Bidrin 0.063 μg/fly, five parts synergist): 0%; 24 hour percent mortality, Bidrin with five parts II-K ([1]; Bidrin 0.13 μg/fly, five parts synergist): 57%; 24 hour percent mortality, Dimetilan with five parts II-K ([1]; Dimetilan 0.031 μg/fly, five parts synergist): 7%; 24 hour percent mortality, Dimetilan with five parts II-K ([1]; Dimetilan 0.063 μg/fly, five parts synergist): 70%; 24 hour percent mortality, Dimetilan with five parts II-K ([1]; Dimetilan 0.13 μg/fly, five parts synergist): 100%; 24 hour percent mortality, Gardona with five parts II-K ([1]; Gardona 0.031 μg/fly, five parts synergist): 63%; 24 hour percent mortality, Gardona with five parts II-K ([1]; Gardona 0.063 μg/fly, five parts synergist): 100%; 24 hour percent mortality, HRS 1422 with five parts II-K ([1]; HRS 1422 0.125 μg/fly, five parts synergist): 77%; 24 hour percent mortality, Pyrolan with five parts II-K ([1]; Pyrolan 0.063 μg/fly, five parts synergist): 7%; 24 hour percent mortality, Pyrolan with five parts II-K ([1]; Pyrolan 0.13 μg/fly, five parts synergist): 40%; 24 hour percent mortality, Pyrolan with five parts II-K ([1]; Pyrolan 0.25 μg/fly, five parts synergist): 80%
C#CCOCc1ccccc1[N+](=O)[O-] [II-P, 2-nitrobenzyl 2-propynyl ether]	0%	96%		0%		0	6	0	0	2	44 min	1.5			46 min	1.0	30%	10%	69%	85%	
C#CCOCc1ccc([N+](=O)[O-])cc1 [II-Q, 4-nitrobenzyl 2-propynyl ether]	0%	90%				1	6			7	41 min	2.1	30 min	1.1	73 min	1.6		25%	43%	67%	
C#CCOCc1cccc2ccccc12 [II-R, α-napthylmethyl 2-propynyl ether]	0%	68%		0%	0	2					49 min	1.7	35 min	1.2	96 min	1.6	22%		49%	65%	
C#CCOC(c1ccc(Cl)cc1)C(C)[N+](=O)[O-] (stereo not drawn) [IV-C]		89%	64%	0%	5	7					74 min	2.5	112 min	4.7			29%	9%	63%	75%	percent kill after 24 hours, with Mobam ([1]; Mobam 0.20 + synergist 0.25 μg/fly): 39%; percent kill after 24 hours, with Mobam ([1]; Mobam 0.20 + synergist 0.50 μg/fly): 60%
